This note sets out measurements from US11649241B2, “Pyrazolochlorophenyl compounds, compositions and methods of use thereof” (Genentech, Inc., priority 2017, dated 2023).

Test [1] has as its target isolated recombinant JAK1 kinase domain (Homo sapiens (Human), UniProt P23458). As to the kind of experiment: JAK enzyme assay (Caliper LabChip peptide phosphorylation), JAK1. The note with it: 1.5 nM JAK1, ATP 25 μM, Morrison tight binding model. The class given is biochemical.
Test [2] addresses isolated recombinant JAK2 kinase domain (Homo sapiens (Human), UniProt O60674). The test can be described thus: JAK enzyme assay (Caliper LabChip peptide phosphorylation), JAK2. The test is classed as biochemical. The note with it: 0.2 nM JAK2, ATP 25 μM, Morrison tight binding model.
Test [3] relates to JAK1-dependent STAT6 phosphorylation downstream of IL-13 stimulation (TF-1 / BEAS-2B cells). As to the kind of experiment: JAK1 pathway assay in cell lines (IL-13-stimulated pSTAT6, MSD). The test is classed as cell-based. As to conditions: Homo sapiens, inhibition of STAT6 phosphorylation, cell line (TF-1 or BEAS-2B) not specified. As to the method:
JAK1 Pathway Assay in Cell Lines was Carried Out as Follows:
Inhibitor potency (EC50) was determined in cell-based assays designed to measure JAK1 dependent STAT phosphorylation. As noted above, inhibition of IL-4, IL-13, and IL-9 signalling by blocking the Jak/Stat signaling pathway can alleviate asthmatic symptoms in pre-clinical lung inflammation models (Mathew et al., 2001, J Exp Med 193(9): 1087-1096; Kudlacz et. al., 2008, Eur J. Pharmacol 582(1-3): 154-161).
In one assay approach, TF-1 human erythroleukemia cells obtained from the American Type Culture Collection (ATCC; Manassas, Va.) were used to measure JAK1-dependent STAT6 phosphorylation downstream of IL-13 stimulation. Prior to use in the assays, TF-1 cells were starved of GM-CSF overnight in OptiMEM medium (Life Technologies, Grand Island, N.Y.) supplemented with 0.5% charcoal/dextran stripped fetal bovine serum (FBS), 0.1 mM non-essential amino acids (NEAA), and 1 mM sodium pyruvate. The assays were run in 384-well plates in serum-free OptiMEM medium using 300,000 cells per well. In a second assay approach, BEAS-2B human bronchial epithelial cells obtained from ATCC were plated at 100,000 cells per well of a 96-well plate one day prior to the experiment. The BEAS-2B assay was run in complete growth medium (bronchial epithelial basal medium plus bulletkit; Lonza; Basel, Switzerland).
Test compounds were serially diluted 1:2 in DMSO and then diluted 1:50 in medium just before use. Diluted compounds were added to the cells, for a final DMSO concentration of 0.2%, and incubated for 30 min (for the TF-1 assay) or 1 hr (for the BEAS-2B assay) at 37° C. Then, cells were stimulated with human recombinant cytokine at their respective EC90 concentrations, as previously determined for each individual lot. Cells were stimulated with IL-13 (R&D Systems, Minneapolis, Minn.) for 15 min at 37° C. The TF-1 cell reactions were stopped by the direct addition of 10× lysis buffer (Cell Signaling Technologies, Danvers, Mass.), whereas the BEAS-2B cell incubations were halted by the removal of medium and addition of 1× lysis buffer. The resultant samples were frozen in the plates at −80° C. Compound mediated inhibition of STAT6 phosphorylation was measured in the cell lysates using MesoScale Discovery (MSD) technology (Gaithersburg, Md.). EC50 values were determined as the concentration of compound required for 50% inhibition of STAT phosphorylation relative to that measured for the DMSO control.

Sequence of isolated recombinant JAK1 kinase domain (P23458 875-1153): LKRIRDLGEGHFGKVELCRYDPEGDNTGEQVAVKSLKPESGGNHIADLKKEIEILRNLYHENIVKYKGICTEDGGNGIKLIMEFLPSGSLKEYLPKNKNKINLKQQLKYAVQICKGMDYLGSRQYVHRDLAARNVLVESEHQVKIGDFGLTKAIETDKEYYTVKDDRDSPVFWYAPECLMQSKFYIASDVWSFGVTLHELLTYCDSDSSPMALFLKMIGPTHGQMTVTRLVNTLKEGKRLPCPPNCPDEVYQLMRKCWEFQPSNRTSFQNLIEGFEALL
Sequence of isolated recombinant JAK2 kinase domain (O60674 849-1124): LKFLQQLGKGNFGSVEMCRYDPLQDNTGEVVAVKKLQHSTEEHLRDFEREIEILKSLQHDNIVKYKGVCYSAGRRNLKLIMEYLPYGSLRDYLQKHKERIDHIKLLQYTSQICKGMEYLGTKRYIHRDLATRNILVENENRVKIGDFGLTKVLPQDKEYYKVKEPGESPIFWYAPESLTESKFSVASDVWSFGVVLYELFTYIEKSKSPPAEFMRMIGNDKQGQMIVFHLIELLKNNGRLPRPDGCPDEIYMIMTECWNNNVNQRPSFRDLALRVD

Regarding `COc1ccc(Cl)cc1-c1nn(C)cc1NC(=O)c1cncc2cn(C)nc12` [Example 1, N-(3-(5-Chloro-2-methoxyphenyl)-1-methyl-1H-pyrazol-4-yl)-2-methyl-2H-pyrazolo[4,3-c]pyridine-7-carboxamide], the Ki (usually the dissociation constant of the complex between target and ligand, obtained from inhibition or displacement) in test [1] was 3.63 nM; in test [2] it was 3.66 nM. Also, the half-maximal inhibitory concentration (IC50) (usually the point on the concentration scale where inhibition reaches its midpoint) in test [3] turned out to be 92.8 nM.

`COc1ccc(Cl)cc1-c1nn(C)cc1NC(=O)c1cncc2cn[nH]c12` [Example 2, N-(3-(5-Chloro-2-methoxyphenyl)-1-methyl-1H-pyrazol-4-yl)-1H-pyrazolo[4,3-c]pyridine-7-carboxamide]: the Ki in test [1] came to 1.35 nM; in test [2], 0.35 nM. In test [3], this compound had an IC50 of 35.9 nM.

`COc1ccc(Cl)cc1-c1n[nH]cc1NC(=O)c1cncc2scnc12` [Example 3, N-(3-(5-Chloro-2-methoxyphenyl)-1H-pyrazol-4-yl)thiazolo[5,4-c]pyridine-7-carboxamide]: the Ki in test [1] is 6.55 nM; in test [2] it was 0.96 nM.

In the case of `O=C(Nc1c[nH]nc1-c1cc(Cl)ccc1OC(F)F)c1cncc2scnc12` [Example 4, N-(3-(5-chloro-2-(difluoromethoxy)phenyl)-1H-pyrazol-4-yl)thiazolo[5,4-c]pyridine-7-carboxamide], the Ki in test [1] is 9.5 nM; in test [2] it was 2.02 nM.

Consider `Nc1nc2c(C(=O)Nc3c[nH]nc3-c3cc(Cl)ccc3OC(F)F)cncc2s1` [Example 5, 2-amino-N-(3-(5-chloro-2-(difluoromethoxy)phenyl)-1H-pyrazol-4-yl)thiazolo[5,4-c]pyridine-7-carboxamide], for which the Ki in test [1] was determined as 0.97 nM; in test [2] it was 0.06 nM.

Regarding `O=C(Nc1c[nH]nc1-c1cc(Cl)ccc1OC(F)F)c1cncc2cn[nH]c12` [Example 6, N-(3-(5-chloro-2-(difluoromethoxy)phenyl)-1H-pyrazol-4-yl)-1H-pyrazolo[4,3-c]pyridine-7-carboxamide], the Ki in test [1] amounted to 7.35 nM; in test [2], 0.48 nM.

`O=C(Nc1c[nH]nc1-c1cc(Cl)ccc1OC(F)F)c1snc2cccnc12` [Example 7, N-(3-(5-chloro-2-(difluoromethoxy)phenyl)-1H-pyrazol-4-yl)isothiazolo[4,3-b]pyridine-3-carboxamide]: the Ki in test [1] was 0.54 nM; in test [2], 0.6 nM. The same compound came in with an IC50 in test [3] of 20.2 nM.

As to `O=C(Nc1c[nH]nc1-c1cc(Cl)ccc1OC(F)F)c1cnc2[nH]ccc2n1` [Example 8, N-(3-(5-chloro-2-(difluoromethoxy)phenyl)-1H-pyrazol-4-yl)-5H-pyrrolo[3,2-b]pyrazine-2-carboxamide], the Ki amounted to 0.57 nM in test [1] and 0.34 nM in test [2].

Take `Nc1nn2cccnc2c1C(=O)Nc1c[nH]nc1-c1cc(Cl)ccc1OC(F)F` [Example 9, 2-amino-N-(3-(5-chloro-2-(difluoromethoxy)phenyl)-1H-pyrazol-4-yl)pyrazolo[1,5-a]pyrimidine-3-carboxamide]: the Ki in test [1] was found to be 0.49 nM; in test [2] it was 0.17 nM. In addition, in test [3], inhibition was half-maximal at 7.9 nM (IC50).

With `O=C(Nc1c[nH]nc1-c1cc(Cl)ccc1OC(F)F)c1cncc2ccoc12` [Example 10, N-(3-(5-chloro-2-(difluoromethoxy)phenyl)-1H-pyrazol-4-yl)furo[3,2-c]pyridine-7-carboxamide], the Ki in test [1] amounted to 0.85 nM; in test [2] it was 0.33 nM. For the same compound, half-maximal inhibition in test [3] (IC50) was put at 50.6 nM.

With `O=C(Nc1c[nH]nc1-c1cc(Cl)ccc1OC(F)F)c1coc2cccnc12` [Example 11, N-(3-(5-chloro-2-(difluoromethoxy)phenyl)-1H-pyrazol-4-yl)furo[3,2-b]pyridine-3-carboxamide], the results for the Ki in test [1] and in test [2] were 0.56 nM and 0.49 nM, respectively. The compound also had an IC50 in test [3] of 17.5 nM.

For `O=C(Nc1c[nH]nc1-c1cc(Cl)ccc1OC(F)F)c1cnn2cc(F)cnc12` [Example 12, N-(3-(5-chloro-2-(difluoromethoxy)phenyl)-1H-pyrazol-4-yl)-6-fluoropyrazolo[1,5-a]pyrimidine-3-carboxamide], the Ki in test [1] came to 0.41 nM; in test [2], 0.09 nM. The compound also yielded an IC50 in test [3] of 16.8 nM.

Take `Cc1ccn2ncc(C(=O)Nc3c[nH]nc3-c3cc(Cl)ccc3OC(F)F)c2n1` [Example 13, N-(3-(5-chloro-2-(difluoromethoxy)phenyl)-1H-pyrazol-4-yl)-5-methylpyrazolo[1,5-a]pyrimidine-3-carboxamide]: the results for the Ki in test [1] and in test [2] were 2.29 nM and 0.41 nM, respectively. This compound showed an IC50 in test [3] of 41.5 nM.

In the case of `COc1ccn2ncc(C(=O)Nc3c[nH]nc3-c3cc(Cl)ccc3OC(F)F)c2n1` [Example 14, N-(3-(5-chloro-2-(difluoromethoxy)phenyl)-1H-pyrazol-4-yl)-5-methoxypyrazolo[1,5-a]pyrimidine-3-carboxamide], the inhibition constant (Ki) in test [1] amounted to 0.18 nM; in test [2], 0.04 nM. In addition, the IC50 in test [3] was 3.8 nM.

Consider `O=C(Nc1c[nH]nc1-c1cc(Cl)ccc1OC(F)F)c1cncc2[nH]cnc12` [Example 15, N-(3-(5-chloro-2-(difluoromethoxy)phenyl)-1H-pyrazol-4-yl)-3H-imidazo[4,5-c]pyridine-7-carboxamide], for which the Ki in test [1] was 5.67 nM; in test [2], 2.55 nM.
